As usually defined, the IC50 is the concentration needed to halve the response being measured. As usually defined, the inhibition is the change of the read-out against control, counted positive when it falls.

5 compounds from US12291502B2, “Topoisomerase II-alpha inhibitors and methods of treating cancer using the same” (The Regents of the University of Colorado, priority 2019, dated 2025) can be followed below.

The target of one data set is T1, Human TOP2A (Homo sapiens, UniProt P11388).
T1 construct: purchased TopoGEN (Buena Vista, CO)
T1 sequence (P11388 whole entry): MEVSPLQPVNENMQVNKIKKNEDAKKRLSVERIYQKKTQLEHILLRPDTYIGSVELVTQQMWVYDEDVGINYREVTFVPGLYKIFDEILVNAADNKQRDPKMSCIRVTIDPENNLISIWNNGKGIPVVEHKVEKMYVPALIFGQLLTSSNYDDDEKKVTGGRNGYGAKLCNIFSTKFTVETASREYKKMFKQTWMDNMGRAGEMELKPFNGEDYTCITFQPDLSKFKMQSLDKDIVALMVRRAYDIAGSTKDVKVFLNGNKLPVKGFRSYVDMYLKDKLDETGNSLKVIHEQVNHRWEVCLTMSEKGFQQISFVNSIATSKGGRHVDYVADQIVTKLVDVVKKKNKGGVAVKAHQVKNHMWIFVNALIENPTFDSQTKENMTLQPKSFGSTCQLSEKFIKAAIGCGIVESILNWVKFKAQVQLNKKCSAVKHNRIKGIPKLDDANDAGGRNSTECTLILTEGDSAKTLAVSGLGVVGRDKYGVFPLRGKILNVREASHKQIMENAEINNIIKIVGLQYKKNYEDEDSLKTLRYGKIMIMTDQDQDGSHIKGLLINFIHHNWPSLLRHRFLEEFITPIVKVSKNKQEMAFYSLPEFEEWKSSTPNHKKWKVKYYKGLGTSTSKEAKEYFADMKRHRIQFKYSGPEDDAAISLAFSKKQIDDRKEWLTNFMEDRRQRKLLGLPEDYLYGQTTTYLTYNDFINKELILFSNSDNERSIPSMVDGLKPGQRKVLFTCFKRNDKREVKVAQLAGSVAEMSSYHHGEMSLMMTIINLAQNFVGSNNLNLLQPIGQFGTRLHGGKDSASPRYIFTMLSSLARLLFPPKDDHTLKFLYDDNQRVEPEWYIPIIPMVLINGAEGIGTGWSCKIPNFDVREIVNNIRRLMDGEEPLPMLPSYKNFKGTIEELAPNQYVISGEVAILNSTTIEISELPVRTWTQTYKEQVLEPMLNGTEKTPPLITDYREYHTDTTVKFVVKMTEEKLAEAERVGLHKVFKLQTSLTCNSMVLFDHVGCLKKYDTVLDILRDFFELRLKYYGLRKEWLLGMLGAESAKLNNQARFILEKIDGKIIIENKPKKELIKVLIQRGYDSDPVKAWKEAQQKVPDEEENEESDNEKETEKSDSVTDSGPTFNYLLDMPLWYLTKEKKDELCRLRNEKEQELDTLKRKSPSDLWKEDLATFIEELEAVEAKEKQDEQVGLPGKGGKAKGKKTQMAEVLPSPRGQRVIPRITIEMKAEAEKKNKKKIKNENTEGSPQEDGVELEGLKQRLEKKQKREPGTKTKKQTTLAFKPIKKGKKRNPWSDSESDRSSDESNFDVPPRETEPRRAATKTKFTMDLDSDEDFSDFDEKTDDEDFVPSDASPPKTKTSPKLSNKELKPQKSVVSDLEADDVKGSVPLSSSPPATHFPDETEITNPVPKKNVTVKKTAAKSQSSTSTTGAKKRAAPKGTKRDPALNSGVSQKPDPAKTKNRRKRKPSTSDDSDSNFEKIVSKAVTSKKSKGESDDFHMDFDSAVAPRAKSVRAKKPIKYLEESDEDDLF
In words: TOP2A DNA decatenation assay (kDNA, agarose gel). Format: biochemical. As to conditions: for inhibition at 30 µM: 1 h, read-out: % Inhibition TOP2A (30 μM); for IC50: decatenation dose response. Here is the method:
Inhibition of TOP2A activity. Human TOP2A, kDNA, and assay buffers were obtained from TopoGEN (Buena Vista, CO). The synthesized compounds were screened for their TOP2A inhibitory activity by the intensity of DNA decatenation bands on a DNA gel when compared to the vehicle. Compounds were initially incubated with TOP2A (3 U/reaction) for 20 min at a 30 μM and 1.2% DMSO concentration in a 37° C. incubator without CO2.
The decatenation reaction was initiated immediately after by adding 2 mM ATP and 35 ng/reaction of kDNA, then incubated for 1 hour in a 37° C. water bath. The samples were loaded into a 0.8% agarose gel in 1× Tris-Borate-EDTA (TBE) at a 0.2 μg/mL ethidium bromide concentration and allowed to run in an electrophoretic chamber for 1 hour at 100V. Compounds with the highest inhibitory activity were selected for 2-fold serial dilution dose-response assays (58.6 nM-30 μM). The dose-response assays followed the same protocol with the exception of 4 U/reaction of TOP2A.
Inhibition studies of TOP2A and observed structure activity relationships (SAR). DNA catenation/decatenation or linking/unlinking of DNA is one of the main TOP2A functions essential for regulating DNA topology, and this is ATP dependent. […] Thus, as a starting point, the synthesized analogs were screened against TOP2A-dependent decatenation using 30 μM fixed concentrations, and the DNA from reactions were resolved on 0.8% agarose gels containing ethidium bromide.
Moreover, these studies provided interesting SAR, which shed light on the potential lead drug target binding interactions and affinity, biological activity, and future drug design optimization with this unique class of TOP2A inhibitors.
(§1) TOP2A decatenation assay. Human TOP2A, kDNA, and assay buffers were obtained from TopoGEN (Buena Vista, CO). The synthesized compounds were screened for their TOP2A inhibitory activity by the intensity of DNA decatenation bands on a DNA gel when compared to the vehicle. Compounds were initially incubated with TOP2A (3 U/reaction) for 20 min at a 30 μM and 1.2% DMSO concentration in a 37° C. incubator without CO2. The decatenation reaction was initiated immediately after by adding 2 mM ATP and 35 ng/reaction of kDNA, then incubated for 1 h in a 37° C. water bath. The samples were loaded into a 0.8% agarose gel in 1× Tris-Borate-EDTA (TBE) at a 0.2 μg/mL ethidium bromide concentration and allowed to run in an electrophoretic chamber for 1 h at 100V. Compounds with the highest inhibitory activity were selected for 2-fold serial dilution dose-response assays (58.6 nM-30 μM). The dose-response assays followed the same protocol with the exception of 4 U/reaction of TOP2A,
as §1, with “assays (53.6” for “assays (58.6”, “of TOP2A.” for “of TOP2A,”

Data set [1] relates to TOP2A-dependent TCF-transcription in SW620-TOP tumor organoids. In words: TCF (TOPflash) reporter assay in 3D tumor organoids. The class given is cell-based. To be noted: SW620-TOP tumor organoids, 72 hours; read-out: IC50 inhibition of TCF-transcription. On the procedure:
TCF reporter assay in 3D Tumor organoid. Stable engineered cells containing pCDH-TOPflash-luc-EF1-puro were used to generate tumor organoid arrayed in 96-well plates and treated for 72 hours. One-Glo™ luciferase reagent and CellTiter-Glo™ 3D cell viability reagent (Promega) were used to determine the TCF reporter activity in viable cells.
After characterizing 3 and 7 as TOP2A ATP-competitive inhibitors, these compounds were next tested for their ability to inhibit TOP2A-dependent TCF-transcription using the well characterized TOPflash (TOP) luminescent reporter, which was used to generate a stably transduced SW620-TOP reporter cells as described previously (Zhou, et al., Oncogene 2016, 35:4990-9). These cells were used to generate single 3D tumor organoids (700 μm in diameter) uniformly arrayed in 96-well plates, which mimic aspects of tumor function observed in vivo. […] Like neo, the mode of action of compounds 3 and 7 also results in significant antitumor activity (FIGS. 3E-3H). […] In other words, the activity of 3 and 7 is long lasting, suppressing CSC stemness and related tumorigenicity. EMT is a major driving force promoting tumor cell invasion and metastasis. […] Tumor organoids were dissociated, and viable cells were washed and plated into the top chamber of 96-well invasion plate coated with Matrigel and incubated for an additional 72 hours without adding any additional compound. […] Taken together, the biological activity of 3 and 7 is consistent with the activity of neo, inhibiting TOP2A-dependent TCF-transcription that in turn reverses EMT while inhibiting the associated tumorigenic properties of mCRC.
A similar trend in IC50 values was observed compared to TOP2A enzyme studies, further supporting our proposed mechanism of action as inhibition of TOP2A-dependent TCF-transcription.
3D Tumor organoid TOPflash reporter assay. […] 35(38): p. 4990-9.] were used to generate tumor organoids arrayed in 96-well plates and treated for 72 h with TOP2A inhibitors. One-Glo™ luciferase reagent and CellTiter-Glo™ 3D cell viability reagent (Promega, WI) were used to determine the TCF reporter activity in viable cells. Briefly, reagents were added to the spheroids at 1:1 ratio (v:v) and the plates were placed on an orbital shaker (300 rpm) for 10 min at room temperature before the luminescence was read with Envision plate reader (PerkinElmer, MA). TCF reporter activity was normalized to organoid viability and inhibitors treated conditions were normalized to DMSO treated controls.
Background: Reporter assays use an easily measured gene product as a stand-in for the process of interest.

The next data set has as its system SW620 tumor organoids. The data set can be described thus: Tumor organoid cytotoxicity / 3D cell viability (CellTox Green). Format: cell-based. To be noted: Homo sapiens, SW-620, Table 2, 72 hours. Here is the method: Tumor organoid cytotoxicity. Fluorescence image-based method: The CellTox™ Green assay (Promega, Madison, WI, USA) was used with 3D tumor organoid to measure spheroid death. 0.1% CellTox™ Green was included in each well at the time of analogs dosing. 10% lysis solution was used as a cell death control. Fluorescence was measured at various time points with 465-510 nm excitation and 520-530 nm emission. Luminescence plate reader method: A 1:1 ratio of CellTiter-Glo™ 3D reagent (Promega) was added to 3D tumor organoid and the plate was shaken at 400 rpm for 30 min before luminescence was read with a PerkinElmer Envision plate reader.
Finally, SW620 tumor organoid cytotoxicity experiments were conducted using the CellTox Green assay, a fluorescence image-based method, to determine whether the inhibition of TCF transcription and effects on EMT are not the result of cytotoxicity. […] All of the analogs tested display IC50 dose response >30 μM and were higher compared to the IC50 values obtained during the downregulation of TCF transcription activity, and the EC50 values obtained for EMT modulation. Thus, the biological effects on TCF-transcription and EMT are not a result of tumor organoid cell death.
(§2) Tumor organoid cytotoxicity. SW620 tumor organoids were grown as previously outlined. CellTox™ Green-Express Cytotoxicity Assay (Promega, WI) solution was prepared per manufacturer's protocol. Briefly, organoids were treated for 72 h with CellTox™ Green Express (0.5×) reagent and various doses of TOP2A inhibitors over a range of 0-to-40 μM. Organoids were then imaged using the Opera Phenix HCS system (PerkinElmer, MA). CellTox™ Green Express was excited at 488 nm and emission was detected at 500-550 nm. Mean intensity of the whole well was utilized for calculating cytotoxicity with Lysis Buffer (Promega, WI, 0.025×) as the 0% viability control and 0.4% DMSO as the 100% viability control. Intensity values were normalized to these controls using GraphPad Prism 7.0 (GraphPad, CA).
as §2, with “CellTox™-Green-Express” for “CellTox™ Green-Express”, “(GraphPad.” for “(GraphPad,”

Data set [2] can be described thus: Water solubility (stated). Format: physicochemical.
Where [3] appears, read: Table 1, decatenation, 30 μM fixed concentration.
[4] abbreviates: read-out: IC50 TOP2A inhibition.
Setting [5] is: Table 1, read-out: % Inhibition TOP2A (IC50 Values).

Several values for one entry are separate records, joined by “and”; a condition that tells them apart may be missing. Equal values may be shown once. Read-outs that look alike come from different tables or passages of the source.

As for `O=C(CN1CCOCC1)Nc1ccc2c(-c3cc(F)ccc3O)ccnc2c1O` [Analog 41], the “% Inhibition TOP2A (30 μM)” value at Human TOP2A (setting [3]) came to 4.0%. For the same compound, in data set [1], the half-inhibitory concentration (IC50) came out at 4.7 µM.
With `COc1c(NC(C)=O)ccc2c(-c3cc4ccccc4s3)ccnc12` [Analog 45], the IC50 in data set [1] turned out to be 10.7 µM.
`CC(=O)Nc1ccc2c(-c3cc4ccccc4o3)ccnc2c1O` [Analog 53]: at Human TOP2A (setting [3]), the inhibition at 30 µM turned out to be 100%. In addition, the half-inhibitory concentration (IC50) is 0.24 µM and 0.2 µM on Human TOP2A (setting [4]); > 30 µM with SW620 tumor organoids. For the same compound, on Human TOP2A (decatenation screen at 30 μM), the “TOP2A inhibition, result in words” value is given as “complete inhibitory activity against TOP2A”.
For `CC(=O)Nc1ccc2c(-c3cccs3)ccnc2c1O` [Analog 57], the inhibition at 30 µM on Human TOP2A (setting [3]) is 100%. The IC50 on Human TOP2A (setting [5]) worked out at 2.3 µM; in data set [1] it was 7 µM.
Take `O=C(CCN1CCOCC1)Nc1ccc2c(-c3cc4ccccc4o3)ccnc2c1O` [Analog 61]: the inhibition at 30 µM at Human TOP2A (setting [3]) stood at 83%. In addition, the IC50 at Human TOP2A (setting [5]) amounted to 4.1 µM; at Human TOP2A (setting [4]), 4 µM. The “fold less potent compared to 53 (TOP2A IC50)” value at Human TOP2A (ratio of TOP2A IC50 values) worked out at 20 fold. Also, in data set [2], the “water solubility, in words” value is given as “maintains water solubility”.
